Measurements as given in patent US20230226228A1, “POSITRON IMAGING TOMOGRAPHY IMAGING AGENT COMPOSITION AND METHOD FOR DETECTION OF BACTERIAL INFECTION” (priority 2020, published 2023).

What was measured:
[1] = assay type: in vitro ADME, Sprague-Dawley rat; conditions: rat serum, 85 min incubation
Procedure: FIG. 6. In vitro metabolic stability of 2-[^18F]F-ENB in rat and human plasma. (a-d) HPLC traces of metabolites of 2-[^18F]F-ENB incubated with rat plasma at different time points (2 min, 10 min, 30 min, 85 min) and spiked with cold standards.
2-[^18F]F-ENB (600 μCi) was incubated with Sprague-Dawley rat plasma (5.0 mL) at 37° C. Subsequently, 0.4 mL aliquots of the plasma were taken 2, 10, 30, and 85 min after addition of the tracer, and 0.6 mL of MeCN was added to quench the metabolism. The mixture was centrifuged at 13 400 rpm for 10 min to remove proteins, and both the supernatant and the protein pellet were analyzed by gamma counting to calculate the extraction efficiency. […] The radioactive fractions corresponding to each cold standard were collected and radioactivity was quantified using a gamma counter from which the percentage of each metabolite was calculated.

[2] = In vivo metabolite analysis in blood and urine of healthy rats (radio-HPLC); design: species or system Sprague-Dawley rats
Procedure: FIG. 7. Analysis of metabolites in the plasma and urine of healthy rats after intravenous injection (IV) of 2-[^18F]F-ENB. After IV administration of 2-[^18F]F-ENB, the animals were sacrificed at each time point (n=3 rats) and the blood and urine samples were collected for radio-HPLC analysis. […] The percent of each metabolite in blood (B) and urine (C) is shown.
2-[^18F]F-ENB (1 mCi) was injected via the tail vein into healthy female Sprague-Dawley rats (10 weeks old, Charles River). […] The mixture was centrifuged at 13 400 rpm for 5 min to remove the protein, and the supernatant and protein pellet were analyzed by gamma counter to determine the efficiency of extraction. […] The radioactive fractions corresponding to each cold standard were collected and analyzed using a gamma counter from which the percentage of each metabolite was calculated (n=3).
Analysis of the radioactive metabolites in the urine was performed using a similar procedure from samples obtained from the bladder 30 and 60 min after tracer injection. The urine was diluted with 45% MeCN/H2O, centrifuged at 13 400 rpm for 5 min and spiked with cold standards for radio-HPLC analysis.

S. aureus Xen29 [3] = test: PET imaging of infective endocarditis rat model; assay type: in vivo, Sprague-Dawley rats; conditions: day-3 post infection, 60 min and 120 min post tracer injection
Source text: Female Sprague-Dawley rats (weight, ˜200 g, Charles River) were maintained in an anesthetized state with an isofluorane-oxygen gas mixture during surgery. A sterile polyethylene catheter was placed and positioned in the left ventricle through a small incision via the retrograde transcarotid artery approach.
The catheter was left in place throughout the experiments. At 24-hour post-catheterization, the rats were infected intravenously through the tail vein with an inoculum of S. aureus Xen29 of 10^6 CFU in 0.5 mL sterile saline. The animals were imaged for bioluminescence signal in the region of the hearts with IVIS daily after infection. The optimal BLI signal over the heart area was determined to be day-3 post inoculation (FIG. 15A and FIG. 16A).

S. aureus Xen36 = test: PET imaging of prosthetic joint infection (PJI) mouse model; assay type: in vivo, Balb/c mice; conditions: day-2 post infection, 60 min and 120 min post tracer injection
Procedure: Balb/c mice was anesthetized by inhalation of a mixture of isofluorane and oxygen. A medical-grade stainless steel Kirschner wire was inserted into the distal part of the femur which has been exposed by dislocation of the patella and reamed with a 25-gauge needle. 2 μL of S. aureus Xen36 (4 log 10 CFU) will be inoculated into the knee joint and onto the wire before the surgical incision is closed with absorbable sutures. The correct position of the wire in the canal was performed with X-ray scan. The animals were imaged for bioluminescence signal in the region of the surgical joint with IVIS daily after infection. The optimal BLI signal over the joint area was determined to be day-2 post inoculation (FIG. 20A).

S. aureus Xen29 [4] = test: PET/CT imaging of rat triceps infection / sterile inflammation model (S. aureus Xen29); assay type: in vivo, Sprague-Dawley rats; conditions: 180 min post tracer injection
Procedure: FIG. 5. PET/CT imaging of rats infected in the right triceps with the bioluminescent Xen29 strain of S. aureus. (A) Experimental design. (B) 2-[^18F]F-ENB-derived radioactivity accumulates in the infected triceps (red arrow) but not the inflamed triceps (yellow arrow) at 3 h post tracer administration.
FIG. 8. PET/CT imaging of 2-[^18F]F-NB in a rat model of S. aureus Xen29 infection. (A) Radiosynthesis of 2-[^18F]F-NB. (i) [^18F]potassium fluoride, Kryptofix222, potassium carbonate, dimethyl sulfoxide, r.t., 10 min; (ii) 2 M potassium hydroxide in H2O, 105° C., 10 min; Overall decay-corrected radiochemical yield: 26% (n=1).
FIG. 10. Time activity curve (TAC) in infected triceps, inflamed triceps and blood and biodistribution of 2-[^18F]F-NB in major organs. (a) The right triceps of the rats were infected with S. aureus Xen 29 and the left triceps were injected with a 10-fold higher burden of heat-killed S. aureus to induce sterile inflammation. The rats were scanned by PET/CT for 120 min (rats with sterile inflammation in the left triceps) immediately starting from tracer administration. The PET scan was separated into ten frames (1-min) and twenty-two frames (5-min). TACs of infected triceps (blue), inflamed triceps (grey) and blood (left heart ventricle, red) are shown. Data represented as mean with standard error of the mean (n=4). (b) Time-dependent accumulation of 2-[^18F]F-NB in infected and inflamed triceps compared to the blood (left heart ventricle). Data are presented as the mean and standard error of the mean (n=4). […]
S. aureus (Newman or Xen29) was cultured overnight by inoculating 5 μL of bacteria from a glycerol stock into 10 mL of fresh cation-adjusted Mueller-Hinton (CAMH) broth or tryptic soy broth (TSB). […] After imaging, the infected triceps were collected, homogenized in PBS using a hand-held homogenizer, and the bacterial burden at the time of imaging was determined by plating the muscle tissues onto solid MH medium. After overnight incubation at 37° C., CFUs were quantified by enumeration. […]

CCOC(=O)c1ccc([N+](=O)[O-])cc1[18F] [2-[^18F]F-ENB, Ethyl 2-[^18F]F-4-nitrobenzoate]
stability of the nitro group [1]: the nitro group was unaffected
radioactive components in blood after IV administration ([2]; blood at 5, 30 and 60 min): 2-[^18F]F-NB was the predominant radioactive component at each time point
radioactive components in urine after IV administration ([2]; urine at 30 and 60 min post injection): the majority of the radioactive signal could be attributed to 2-[^18F]F-NB
PET signal over the heart region (S. aureus Xen29 [3]): a robust radioactive signal was detected over the heart region
PET signal over the joint region (S. aureus Xen36): a robust radioactive signal was detected over the joint region
localisation of radioactive signal (S. aureus Xen29 [4]): predominantly observed in the infected triceps
